Columns and labels:
[1] = Pharmacokinetic studies of crizotinib and dasatinib in patients; type: in vivo, human
[2] = in the combination of dasatinib and crizotinib, administered once daily, children
[3] = cited from earlier work
[4] = tested on: ERK (p-ERK/total ERK) in peripheral-blood mononuclear cells; assay: Total and phosphorylated ERK in PBMC before and 3 hours after dasatinib; type: in vivo, human; settings: after dosing of dasatinib, paired samples
[5] = tested on: p-glycoprotein; settings: cited from earlier work
[6] = tested on: BCRP; settings: cited from earlier work

Structure (SMILES) | AUC0→t ([1]; dose 215 mg/m^2, day 1, 8 patients, t=∞, median (range)) | AUC0→t ([1]; dose 215 mg/m^2, day 14, 4 patients, t=24 hours, median (range)) | Tmax ([1]; human, in vivo) | Cmax ([1]; human, in vivo, 165 mg/m2) | Cmax ([1]; human, in vivo, 165 mg/m2, Cmax) | half-life ([1]; human, in vivo, elimination half-life, crizotinib day 1 of therapy, 25 patients, median, range 9.8 to 34.7) | half-life ([1]; human, in vivo, elimination half-life, crizotinib day 14 of therapy, 19 patients, median, range 8.0 to 36.5) | maximum tolerated dose (MTD) [2] | CNS penetration [3] | half-life ([1]; human, in vivo) | AUC0→t ([1]; human, in vivo, 50 mg/m2) | Cmax ([1]; human, in vivo, 50 mg/m2) | AUC0→t ([1]; human, in vivo, 65 mg/m2) | Cmax ([1]; human, in vivo, 65 mg/m2) | apparent oral clearance ([1]; human, in vivo, po) | change in ratio of p-ERK/total ERK in PBMC [4] | substrate of p-glycoprotein [5] | substrate of BCRP [6]
C[C@@H](Oc1cc(-c2cnn(C3CCNCC3)c2)cnc1N)c1c(Cl)ccc(F)c1Cl [Crizotinib] | 5,326.3 (2,068.3 to 12,182.9) ng/mL/hr | 3,118.9 (1,693.8 to 4,278.5) ng/mL/hr | 4.1 h | 155.5 (55.8 to 324.4) ng/mL | 156 ng/mL | 13.1 h | 12.8 h | 215 mg/m^2 | minimal and probably inadequate for the treatment of primary CNS cancers | – | – | – | – | – | – | – | – | –
Cc1nc(Nc2ncc(C(=O)Nc3c(C)cccc3Cl)s2)cc(N2CCN(CCO)CC2)n1 [Dasatinib] | – | – | 2.1 h | – | – | – | – | 50 mg/m^2 | more limited than initially recognized | 4.4 h | 593.8 (388.1 to 1,521.1) ng/mL/hr | 120 ng/mL | 863.9 (721.9 to 1,006) ng/mL/hr | 210 ng/mL | 1,328 mL/min/m^2 | No statistically significant changes | substrate of p-glycoprotein | substrate of p-glycoprotein and BCRP

From article PMC5980705 (Pediatric blood & cancer, 2018)
